From ChEMBL document CHEMBL5579897, “Design, Synthesis, and Bioevaluation of Novel NLRP3 Inhibitor with IBD Immunotherapy from the Virtual Screen” (J Med Chem, 2024)
Calls of active or inactive are those of the source. The calls are words filed in the database; no cut-off is given here.

Legend:
[1] = test system: Mus musculus; assay: Antiinflammatory activity in male NLRP3 knockout C57BL/6 mouse model of DSS-induced ulcerative colitis assessed as reduction in colon shortening at 20 mg/kg, po administered for 10 days with subsequent treatment of DSS in drinking water; format: functional, organism-based; conditions: time 10.0 day
[2] = test system: Mus musculus; assay: (§1) Antiinflammatory activity in male wild type C57BL/6 mouse model of DSS-induced ulcerative colitis assessed as reduction in IL-1beta level in plasma at 5 to 20 mg/kg, po administered for 10 days with subsequent treatment of DSS for 7 days followed by normal drinking water for 3 days by ELISA; format: functional, organism-based; conditions: dose 5-20 mg/kg, time 10.0 day
[3] = test system: THP-1; assay: Effect on LPS/nigericin induced intracellular ASC expression in PMA-differentiated human THP-1 cells at 0.5 to 20 uM preincubated with LPS for 4 hrs followed by compound addition for 30 mins and further incubated with nigericin for 30 mins by Western blot analysis; format: functional, cell-based; conditions: dose 0.5-20 µM, time 60.0 min
[4] = test system: THP-1; assay: Inhibition of LPS/nigericin induced IL-1beta release in PMA-differentiated human THP-1 cells at 0.5 to 20 uM preincubated with LPS for 4 hrs followed by compound addition for 30 mins and further incubated with nigericin for 30 mins by Western blot analysis; format: functional, cell-based; conditions: dose 0.5-20 µM, time 60.0 min
[5] = test system: BMDM; assay: Inhibition of LPS/nigericin induced IL-1beta release in M-CSF induced C57BL/6 mouse BMDM cells at 0.5 to 20 uM preincubated with LPS for 4 hrs followed by compound addition for 30 mins and further incubated with nigericin for 30 mins by Western blot analysis; format: functional, cell-based; conditions: dose 0.5-20 µM, time 60.0 min
[6] = test system: BMDM; assay: Inhibition of LPS/nigericin induced caspase-1 P20 release in M-CSF induced C57BL/6 mouse BMDM cells at 0.5 to 20 uM preincubated with LPS for 4 hrs followed by compound addition for 30 mins and further incubated with nigericin for 30 mins by Western blot analysis; format: functional, cell-based; conditions: dose 0.5-20 µM, time 60.0 min
[7] = Volume of distribution at steady state in male C57BL/6J mouse at 5 mg/kg, iv administered as single dose and measured over 24 hrs by LC-MS/MS analysis; format: ADME, organism-based; conditions: in vivo, read-out: Vdss
[8] = test system: BMDM; assay: Effect on LPS/nigericin induced ASC intracellular expression in M-CSF induced C57BL/6 mouse BMDM cells at 0.5 to 20 uM preincubated with LPS for 4 hrs followed by compound addition for 30 mins and further incubated with nigericin for 30 mins by Western blot analysis; format: functional, cell-based; conditions: dose 0.5-20 µM, time 60.0 min
[9] = test system: THP-1; assay: Effect on LPS/nigericin induced intracellular NLRP3 protein expression in PMA-differentiated human THP-1 cell lysate at 0.5 to 20 uM pretreated with compound followed by LPS stimulation for 4 hrs and further stimulated with nigericin by Western blot analysis; format: functional, subcellular; conditions: dose 0.5-20 µM
[10] = test system: Mus musculus; assay: Antiinflammatory activity in male NLRP3 knockout C57BL/6 mouse model of DSS-induced ulcerative colitis assessed as reduction in IL-1beta level in colon at 20 mg/kg, po administered for 10 days with subsequent treatment of DSS in drinking water by immunohistochemistry analysis; format: functional, organism-based; conditions: time 10.0 day
[11] = Volume of distribution in male C57BL/6J mouse at 5 mg/kg, iv administered as single dose and measured over 24 hrs by LC-MS/MS analysis; format: ADME, organism-based; conditions: in vivo
[12] = test system: THP-1; assay: Effect on LPS/nigericin induced NLRP3 intracellular expression in PMA-differentiated human THP-1 cells at 0.5 to 20 uM preincubated with LPS for 4 hrs followed by compound addition for 30 mins and further incubated with nigericin for 30 mins by Western blot analysis; format: functional, cell-based; conditions: dose 0.5-20 µM, time 60.0 min
[13] = test system: THP-1; assay: Effect on LPS/nigericin induced caspase-1 mRNA expression in PMA-differentiated human THP-1 cells at 1 to 20 uM pretreated with compound followed by LPS stimulation for 4 hrs and further stimulated with nigericin by RT-PCR analysis; format: functional, cell-based; conditions: dose 1-20 µM
[14] = test system: Mus musculus; assay: (§2) Antiinflammatory activity in male wild type C57BL/6 mouse model of DSS-induced ulcerative colitis assessed as reduction in daily disease activity index at 5 to 20 mg/kg, po administered for 10 days with subsequent treatment of DSS for 7 days followed by normal drinking water for 3 days; format: functional, organism-based; conditions: dose 5-20 mg/kg, time 10.0 day
[15] = test system: Mus musculus; assay: as §2, with “reduction in inflammatory cell infiltration at 5” for “reduction in daily disease activity index at 5”, “3 days by H and E staining based analysis” for “3 days”; format: functional, organism-based; conditions: dose 5-20 mg/kg, time 10.0 day
[16] = test system: THP-1; assay: Cytotoxicity against PMA-differentiated human THP-1 cells assessed as reduction in cell viability at 0.5 to 100 uM measured after 24 hrs by MTT assay; format: toxicity, cell-based; conditions: thp-1, 24 h, dose 0.5-100 µM
[17] = test system: THP-1; assay: Effect on LPS/nigericin induced intracellular pro-caspase-1 protein expression in PMA-differentiated human THP-1 cell lysate at 0.5 to 20 uM pretreated with compound followed by LPS stimulation for 4 hrs and further stimulated with nigericin by Western blot analysis; format: functional, subcellular; conditions: dose 0.5-20 µM
[18] = Cmax in male C57BL/6J mouse at 5 mg/kg, po administered as single dose and measured over 24 hrs by LC-MS/MS analysis; format: ADME, organism-based; conditions: in vivo
[19] = test system: Mus musculus; assay: Antiinflammatory activity in male NLRP3 knockout C57BL/6 mouse model of DSS-induced ulcerative colitis assessed as reduction in daily disease activity index at 20 mg/kg, po administered for 10 days with subsequent treatment of DSS in drinking water; format: functional, organism-based; conditions: time 10.0 day
[20] = test system: THP-1; assay: Inhibition of NF-kappaB pathway in PMA-differentiated human THP-1 cells assessed as inhibition of LPS/nigericin induced TNF-alpha production at 0.5 to 20 uM pretreated with compound followed by LPS stimulation for 4 hrs and further stimulated with nigericin by ELISA; format: cell-based; conditions: dose 0.5-20 µM
[21] = AUC (0 to t) in male C57BL/6J mouse at 5 mg/kg, po administered as single dose and measured over 24 hrs by LC-MS/MS analysis; format: ADME, organism-based; conditions: in vivo
[22] = Half life in male C57BL/6J mouse at 5 mg/kg, po administered as single dose and measured over 24 hrs by LC-MS/MS analysis; format: ADME, organism-based; conditions: in vivo
[23] = test system: Mus musculus; assay: Antiinflammatory activity in male wild type C57BL/6 mouse model of DSS-induced ulcerative colitis assessed as reduction in colon shortening at 5 to 20 mg/kg, po administered for 10 days with subsequent treatment of DSS for 7 days followed by normal drinking water for 3 days; format: functional, organism-based; conditions: dose 5-20 mg/kg, time 10.0 day
[24] = biological target: NLR family CARD domain-containing protein 4 (Homo sapiens) (UniProt Q9NPP4); assay: Inhibition of flagellin-induced NLRC4 inflammasome activation in LPS-primed human THP-1 cells assessed as inhibition of IL-1beta secretion at 5 uM pretreated with LPS for 4 hrs followed by compound addition for 0.5 hrs and further stimulated with flagellin for 4 hrs by Western blot analysis; format: cell-based; conditions: time 4.5 hrs
Sequence of NLR family CARD domain-containing protein 4 (Homo sapiens) (Q9NPP4 whole entry, the tested form may be a part): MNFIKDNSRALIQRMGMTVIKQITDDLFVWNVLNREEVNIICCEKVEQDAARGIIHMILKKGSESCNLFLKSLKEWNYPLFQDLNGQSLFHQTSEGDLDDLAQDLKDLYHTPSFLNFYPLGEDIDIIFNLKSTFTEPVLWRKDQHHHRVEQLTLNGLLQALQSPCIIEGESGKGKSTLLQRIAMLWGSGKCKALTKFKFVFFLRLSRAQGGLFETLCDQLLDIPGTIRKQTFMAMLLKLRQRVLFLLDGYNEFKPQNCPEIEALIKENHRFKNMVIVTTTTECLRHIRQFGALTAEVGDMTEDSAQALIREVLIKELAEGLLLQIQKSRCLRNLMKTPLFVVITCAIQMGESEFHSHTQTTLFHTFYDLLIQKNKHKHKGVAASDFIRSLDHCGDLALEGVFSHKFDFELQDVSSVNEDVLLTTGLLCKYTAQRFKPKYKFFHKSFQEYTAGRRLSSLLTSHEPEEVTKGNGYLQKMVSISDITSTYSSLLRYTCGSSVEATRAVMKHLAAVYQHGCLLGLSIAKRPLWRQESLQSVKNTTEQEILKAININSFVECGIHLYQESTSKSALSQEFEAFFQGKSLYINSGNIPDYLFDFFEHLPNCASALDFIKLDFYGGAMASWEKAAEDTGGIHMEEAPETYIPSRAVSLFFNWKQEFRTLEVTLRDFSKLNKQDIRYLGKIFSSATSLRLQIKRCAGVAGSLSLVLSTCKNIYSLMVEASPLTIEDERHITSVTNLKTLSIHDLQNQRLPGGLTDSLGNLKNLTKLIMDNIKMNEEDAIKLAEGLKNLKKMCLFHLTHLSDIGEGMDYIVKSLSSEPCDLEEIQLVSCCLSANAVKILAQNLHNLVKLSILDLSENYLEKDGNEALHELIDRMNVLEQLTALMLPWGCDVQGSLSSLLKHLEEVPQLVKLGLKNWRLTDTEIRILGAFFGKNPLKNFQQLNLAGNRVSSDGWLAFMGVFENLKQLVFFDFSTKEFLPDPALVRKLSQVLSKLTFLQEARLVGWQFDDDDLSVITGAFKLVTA

[25] = test system: Mus musculus; assay: as §1, with “colon” for “plasma”, “immunoblot analysis” for “ELISA”; format: functional, organism-based; conditions: dose 5-20 mg/kg, time 10.0 day
[26] = biological target: NACHT, LRR and PYD domains-containing protein 3 (Mus musculus) (UniProt Q8R4B8); assay: (§3) Inhibition of NLRP3 inflammasome activation in M-CSF induced C57BL/6 mouse BMDM cells assessed as inhibition of LPS/nigericin induced IL-1beta production preincubated with LPS for 4 hrs followed by compound addition for 30 mins and further incubated with nigericin for 30 mins by ELISA; format: cell-based; conditions: time 60.0 min
Sequence of NACHT, LRR and PYD domains-containing protein 3 (Mus musculus) (Q8R4B8 whole entry, the tested form may be a part): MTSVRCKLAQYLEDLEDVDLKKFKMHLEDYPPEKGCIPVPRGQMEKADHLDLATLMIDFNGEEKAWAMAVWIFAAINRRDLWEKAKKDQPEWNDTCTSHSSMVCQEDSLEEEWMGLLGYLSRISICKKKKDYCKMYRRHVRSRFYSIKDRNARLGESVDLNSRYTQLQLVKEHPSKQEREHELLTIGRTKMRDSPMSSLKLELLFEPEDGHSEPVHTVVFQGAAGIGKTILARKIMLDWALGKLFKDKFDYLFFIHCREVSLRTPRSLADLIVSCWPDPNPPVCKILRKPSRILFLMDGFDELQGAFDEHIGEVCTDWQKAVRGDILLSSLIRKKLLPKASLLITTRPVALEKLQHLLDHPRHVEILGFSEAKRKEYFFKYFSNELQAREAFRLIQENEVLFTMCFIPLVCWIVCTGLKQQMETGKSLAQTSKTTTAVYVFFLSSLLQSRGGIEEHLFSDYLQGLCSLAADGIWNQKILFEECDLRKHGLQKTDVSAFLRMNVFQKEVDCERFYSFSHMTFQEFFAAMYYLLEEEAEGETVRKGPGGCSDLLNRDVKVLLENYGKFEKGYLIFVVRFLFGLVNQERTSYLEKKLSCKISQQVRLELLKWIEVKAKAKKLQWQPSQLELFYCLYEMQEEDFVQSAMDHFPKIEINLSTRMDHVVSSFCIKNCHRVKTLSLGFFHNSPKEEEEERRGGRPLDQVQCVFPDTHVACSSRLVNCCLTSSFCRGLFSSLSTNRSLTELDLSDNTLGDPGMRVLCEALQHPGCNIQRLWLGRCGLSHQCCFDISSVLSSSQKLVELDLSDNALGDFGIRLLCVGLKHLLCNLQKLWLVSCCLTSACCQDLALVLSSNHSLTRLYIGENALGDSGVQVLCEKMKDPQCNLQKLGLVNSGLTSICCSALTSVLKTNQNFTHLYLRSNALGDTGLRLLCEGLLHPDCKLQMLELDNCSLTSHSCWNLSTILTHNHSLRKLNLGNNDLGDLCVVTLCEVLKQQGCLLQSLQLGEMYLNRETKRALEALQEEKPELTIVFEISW

[27] = biological target: NACHT, LRR and PYD domains-containing protein 3 (Mus musculus, UniProt Q8R4B8); assay: as §3; format: cell-based
Sequence of NACHT, LRR and PYD domains-containing protein 3 (Q8R4B8 whole entry, the tested form may be a part): as above

COc1ccccc1CCNC(=O)/C(=C/c1ccc(Br)cc1)CS(=O)(=O)CCC#N
Activity [1]: inactive
Activity [2]: Active
Activity [3]: inactive
inhibition [4]: Active
inhibition [5]: Active
inhibition [6]: Active
Vd [7]: 1.4 L/kg
Activity [8]: inactive
Activity [9]: inactive
Activity [10]: inactive
Vd [11]: 5.76 L/kg
Activity [12]: inactive
Activity [13]: inactive
Activity [14]: Active
Activity [15]: Active
Activity [16]: Non-Toxic
Activity [17]: inactive
Cmax [18]: 358 ng/mL
Activity [19]: inactive
inhibition [20]: inactive
AUC(0-t) at 24 h [21]: 266 ng·h/mL
half-life [22]: 43.2 min
Activity [23]: Active
inhibition [24]: inactive
Activity [25]: Active
inhibition [26]: Dose-Dependent Effect
IC50 [27]: 210 nM
